Assay results as given in publication PMC12473906, “Comparing the Altis RepliGut Organoid System to MDCK Monolayers in Predicting the Oral Absorption of Lenalidomide” (Pharmaceutics, 2025).
Entries after “also recorded” stand apart in the source; their conditions may differ.

Key:
[1] = cited from earlier work
[2] = cited from earlier work; remark: listed apart in the source
BCRP [3] = biological target: T1, BCRP (Homo sapiens, UniProt Q9UNQ0); assay: Bidirectional permeability in gMDCK cells overexpressing human BCRP (gMDCK-BCRP); assay type: in vitro ADME
T1 construct: expressed in transfected cells; host or cells: gMDCK (P-gp-knockout Madin-Darby Canine Kidney cells), puromycin selection
T1 sequence (Q9UNQ0 1-655): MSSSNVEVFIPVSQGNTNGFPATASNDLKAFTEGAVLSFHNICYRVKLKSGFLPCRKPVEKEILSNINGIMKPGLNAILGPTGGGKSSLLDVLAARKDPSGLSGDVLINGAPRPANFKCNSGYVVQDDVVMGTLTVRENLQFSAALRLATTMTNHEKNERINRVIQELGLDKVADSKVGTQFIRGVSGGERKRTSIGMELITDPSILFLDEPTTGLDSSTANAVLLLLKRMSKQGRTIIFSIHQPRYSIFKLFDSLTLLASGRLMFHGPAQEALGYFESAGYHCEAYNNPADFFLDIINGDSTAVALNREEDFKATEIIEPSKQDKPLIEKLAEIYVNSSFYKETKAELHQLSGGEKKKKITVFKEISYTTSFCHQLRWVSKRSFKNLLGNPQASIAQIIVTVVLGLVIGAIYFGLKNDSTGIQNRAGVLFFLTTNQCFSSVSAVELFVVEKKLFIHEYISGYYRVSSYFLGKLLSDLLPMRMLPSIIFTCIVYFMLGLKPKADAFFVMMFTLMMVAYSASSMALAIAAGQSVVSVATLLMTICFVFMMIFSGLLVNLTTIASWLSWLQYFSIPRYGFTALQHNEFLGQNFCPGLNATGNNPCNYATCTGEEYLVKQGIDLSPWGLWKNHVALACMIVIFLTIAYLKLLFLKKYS
Procedure: (§1) gMDCK cells were maintained in Dulbecco’s Modified Eagle’s Medium (DMEM) supplemented with Gibco’s MEM amino acids solution (1 X), penicillin (100 units/mL), streptomycin ([…]), and 10% fetal bovine serum and in a humidified, 37 °C, 5% CO2 environment as previously described. Efflux transporter-expressing gMDCK cells, gMDCK-P-gp and gMDCK-BCRP, were cultured in the above-mentioned medium with addition of puromycin (2 µg/mL). All cells were passaged at approximately 80% confluency in T-175 flasks. For permeability assays, gMDCK, gMDCK-P-gp, and gMDCK-BCRP cells were seeded on 96 transwell plates (approximately 40,000 cells/well) and allowed to grow for 48 h in a 37 °C, 5% CO2 environment. Digitonin (10–40 mg/L) was included in some experiments to loosen tight junctions to explore paracellular permeability. TEER values were measured on the day of the experiment using an EVOM^TM Auto (World Precision Instruments, Sarasota, FL, USA).
(§2) Lenalidomide dosing solutions (1–500 µM) were diluted from DMSO stock (500 mM) with HEPES-buffered HBSS (with Ca^2+ and Mg^2+, 10 mM HEPES, pH 7.4) + 20 µM Lucifer yellow resulting in a final DMSO content of 0.2%. Lucifer yellow was measured fluorometrically (Ex/Em 428/532 nm) to assess tight junctions/paracellular transport. Permeability of lenalidomide was assessed bidirectionally in both in vitro models over three hours, and cell monolayers were collected at the end of the experiment.
(§3) Briefly, for assessing apical to basolateral (A to B) permeability, 150 uL of lenalidomide dosing solutions was added to apical side of the transwell, and 250 uL of HEPES-buffered HBSS without Lucifer yellow was added to basolateral side. For evaluating basolateral to apical (B to A) permeability, 250 uL of dosing solutions was added to the basolateral side, and 150 uL of HEPES-buffered HBSS without Lucifer yellow was added to the apical side. An amount of 10 µL was sampled from the dosing side of the transwell at the beginning and the end of the experiment. An amount of 25 µL was sampled from the receiver side at 1, 2, and 3 h.
(§4) Apparent permeability (Papp) was calculated according to the following equation: Papp = (dQ/dt)/(A * C), where dQ/dt is the amount of drug that crosses the membrane per unit of time, A is the surface area of the membrane through which the drug is permeating (0.143 cm^2), and C is the initial concentration added to cells. The efflux ratio was calculated according to the following equation:(4) Efflux ratio= Papp basolateral to apical/Papp apical to basolateral

human P-gp = biological target: T2, human P-gp (Homo sapiens, UniProt P08183); assay: Bidirectional permeability in gMDCK cells overexpressing human P-gp (gMDCK-MDR1); assay type: in vitro ADME; conditions: gMDCK P-gp overexpressing cells and organoids
T2 construct: expressed in transfected cells; host or cells: gMDCK (P-gp-knockout Madin-Darby Canine Kidney cells), puromycin selection
T2 sequence (P08183 whole entry): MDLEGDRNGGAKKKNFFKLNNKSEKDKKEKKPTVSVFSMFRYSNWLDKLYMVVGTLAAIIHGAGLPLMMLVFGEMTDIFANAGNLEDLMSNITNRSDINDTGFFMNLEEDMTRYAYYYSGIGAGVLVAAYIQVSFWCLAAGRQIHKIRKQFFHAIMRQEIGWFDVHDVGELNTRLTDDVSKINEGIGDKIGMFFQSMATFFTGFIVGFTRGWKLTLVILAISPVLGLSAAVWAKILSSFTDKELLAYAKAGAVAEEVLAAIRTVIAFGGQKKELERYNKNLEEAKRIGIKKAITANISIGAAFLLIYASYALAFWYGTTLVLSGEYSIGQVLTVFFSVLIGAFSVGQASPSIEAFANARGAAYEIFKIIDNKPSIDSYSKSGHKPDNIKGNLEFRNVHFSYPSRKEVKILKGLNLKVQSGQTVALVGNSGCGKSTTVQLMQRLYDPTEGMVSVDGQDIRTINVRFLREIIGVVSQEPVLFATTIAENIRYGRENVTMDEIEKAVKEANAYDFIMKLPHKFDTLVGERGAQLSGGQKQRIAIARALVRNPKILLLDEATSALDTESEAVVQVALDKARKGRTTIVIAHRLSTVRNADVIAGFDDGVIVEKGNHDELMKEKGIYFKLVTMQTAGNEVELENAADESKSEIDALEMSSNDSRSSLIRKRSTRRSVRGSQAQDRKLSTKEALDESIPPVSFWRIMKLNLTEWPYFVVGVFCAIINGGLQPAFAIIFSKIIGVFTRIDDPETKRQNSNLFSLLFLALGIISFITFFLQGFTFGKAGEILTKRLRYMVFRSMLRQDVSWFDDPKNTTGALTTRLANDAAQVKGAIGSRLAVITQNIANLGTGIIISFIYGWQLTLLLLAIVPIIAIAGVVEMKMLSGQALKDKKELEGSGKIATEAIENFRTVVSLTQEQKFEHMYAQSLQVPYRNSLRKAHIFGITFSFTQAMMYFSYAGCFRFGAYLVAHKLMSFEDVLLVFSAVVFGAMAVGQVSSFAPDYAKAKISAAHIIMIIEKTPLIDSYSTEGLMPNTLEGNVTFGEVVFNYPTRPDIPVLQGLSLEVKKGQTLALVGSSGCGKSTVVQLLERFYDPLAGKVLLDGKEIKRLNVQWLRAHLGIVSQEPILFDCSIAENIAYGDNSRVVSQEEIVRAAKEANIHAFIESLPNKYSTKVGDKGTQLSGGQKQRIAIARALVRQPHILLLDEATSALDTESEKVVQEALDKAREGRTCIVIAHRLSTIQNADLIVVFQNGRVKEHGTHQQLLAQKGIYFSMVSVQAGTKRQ
Procedure: as §1, §2, §3, §4

P-gp (MDR1) = biological target: T3, P-gp (MDR1) (Homo sapiens, UniProt P08183); assay: as above; assay type: in vitro ADME; conditions: human, MDCK-MDR1, pH 7.4; gMDCK-MDR1
T3 construct: expressed in transfected cells; host or cells: gMDCK (P-gp-knockout Madin-Darby Canine Kidney cells), puromycin selection
T3 sequence (P08183 whole entry): as above
Procedure: as §1, §2, §3, §4

[4] = gMDCK (P-gp knockout MDCK) monolayer permeability assay; conditions: dog, MDCK
gMDCK monolayers = assay: as above
[5] = system: MDCK cells and other traditional in vitro systems; conditions: cited from earlier work
BCRP [6] = system: BCRP; design: method as in PMID 24627218; conditions: vesicles with BCRP; cited from earlier work
[7] = Lenalidomide Permeability in gMDCK Cells, FaSSIF
[8] = Lenalidomide Permeability in gMDCK Cells, FeSSIF
[9] = pH 7.4, Lenalidomide Permeability in gMDCK Cells, 4% BSA in receiver compartment
[10] = pH 7.4, Lenalidomide Permeability in gMDCK Cells, shaking (1000 rpm)
[11] = pH 7.4, Lenalidomide Permeability in gMDCK Cells, typical assay conditions

Papp A→B at 3 h (BCRP [3]; human, pH 7.4, gMDCK-BCRP): 0.15 ×10⁻⁶ cm/s | Papp B→A at 3 h (BCRP [3]; human, pH 7.4, gMDCK-BCRP): 2.4 ×10⁻⁶ cm/s | efflux ratio at 3 h (BCRP [3]; human, pH 7.4, gMDCK-BCRP): 16 | Papp A→B at 3 h (P-gp (MDR1)): 0.2 ×10⁻⁶ cm/s | Papp B→A at 3 h (P-gp (MDR1)): 2.8 ×10⁻⁶ cm/s | efflux ratio at 3 h (P-gp (MDR1)): 14 | Papp at 3 h, 10 µM [4, 7]: 0.27 ×10⁻⁶ cm/s | Papp at 3 h, 50 µM [4, 7]: 0.28 ×10⁻⁶ cm/s | Papp at 3 h, 250 µM [4, 7]: 0.17 ×10⁻⁶ cm/s | Papp at 3 h, 500 µM ([4]; Lenalidomide Permeability in gMDCK Cells, FaSSIF, 500 uM): 0.13 ×10⁻⁶ cm/s | Papp at 3 h, 10 µM [4, 8]: 0.07 ×10⁻⁶ cm/s | Papp at 3 h, 50 µM [4, 8]: 0.14 ×10⁻⁶ cm/s | Papp at 3 h, 250 µM [4, 8]: 0.1 ×10⁻⁶ cm/s | Papp at 3 h, 500 µM ([4]; Lenalidomide Permeability in gMDCK Cells, FeSSIF, 500 uM): 0.14 ×10⁻⁶ cm/s | Papp A→B at 3 h ([4]; pH 7.4): 0.21 ×10⁻⁶ cm/s | Papp B→A at 3 h ([4]; pH 7.4): 0.13 ×10⁻⁶ cm/s | efflux ratio at 3 h ([4]; pH 7.4): 0.62 | Papp at 3 h, 10 µM [4, 9]: 0.12 ×10⁻⁶ cm/s | Papp at 3 h, 50 µM [4, 9]: 0.16 ×10⁻⁶ cm/s | Papp at 3 h, 250 µM [4, 9]: 0.15 ×10⁻⁶ cm/s | Papp at 3 h, 500 µM ([4]; pH 7.4, Lenalidomide Permeability in gMDCK Cells, 4% BSA in receiver compartment, 500 uM): 0.15 ×10⁻⁶ cm/s | Papp at 3 h, 10 µM [4, 10]: 0.03 ×10⁻⁶ cm/s | Papp at 3 h, 50 µM [4, 10]: 0.03 ×10⁻⁶ cm/s | Papp at 3 h, 250 µM [4, 10]: 0.14 ×10⁻⁶ cm/s | Papp at 3 h, 500 µM ([4]; pH 7.4, Lenalidomide Permeability in gMDCK Cells, shaking (1000 rpm), 500 uM): 0.21 ×10⁻⁶ cm/s | Papp at 3 h, 10 µM [4, 11]: 0.19 ×10⁻⁶ cm/s | Papp at 3 h, 50 µM [4, 11]: 0.22 ×10⁻⁶ cm/s | Papp at 3 h, 250 µM [4, 11]: 0.24 ×10⁻⁶ cm/s | Papp at 3 h, 500 µM ([4]; pH 7.4, Lenalidomide Permeability in gMDCK Cells, typical assay conditions, 500 uM): 0.24 ×10⁻⁶ cm/s | Papp at 3 h ([4]; pH 7.4, apparent permeability (Papp), gMDCK cell monolayers, independent of concentration): ~0.2 ×10⁻⁶ cm/s | Papp at 3 h, 500 µM ([4]; pH 7.4, gMDCK Papp, lenalidomide 500 µM, apical to basolateral, n=3 biological replicates): 0.21 ×10⁻⁶ cm/s | effect of 4% bovine serum albumin in the receiver side on apparent permeability (gMDCK monolayers; gMDCK, sink condition): did not increase | effect of shaking gMDCK cells during the permeability assay on permeability (gMDCK monolayers; shaking transwell plate at 1000 rpm): did not significantly change
SMILES: Nc1cccc2c1CN(C1CCC(=O)NC1=O)C2=O (stereo not shown) [Lenalidomide]
Human Fa (fraction absorbed) [1]: 90% [21] | Elimination half-life ([1]; humans): 3 to 5 h | Metabolism ([1]; humans): < 5% | Oral bioavailability ([1]; humans): > 90% | Route of elimination ([1]; humans): Renal | LogP (o/w) ([2]; Figure 1, ref PubChem): < 1 | pKa ([2]; lower pKa): 2.3 | LogP ([2]; ref PubChem): −0.40 | BCRP substrate (BCRP [3]; gMDCK BCRP overexpressing cells and organoids): substrate for both transporters; also recorded: substrate of both P-gp and BCRP | P-gp substrate (human P-gp): substrate for both transporters; also recorded: substrate of both P-gp and BCRP | BCS class [5]: 3 | In vitro permeability [5]: Low | BCRP substrate (BCRP [6]): not a BCRP substrate
